Measurements as given in article PMC9313812, “The Pseudo‐Natural Product Rhonin Targets RHOGDI” (Angewandte Chemie (International Ed. in English), 2022).

What was measured:
RHO GTPases = experiment: Immunoblotting of total cellular RHO GTPase levels; assay type: cell-based; conditions: 10 μM, 24 h
[1] = biological target: T1, RHOGDI1-mediated extraction of CDC42 (Homo sapiens, UniProt P52565); experiment: Liposome sedimentation assay: displacement of prenylated GDP-bound CDC42 by GST-RHOGDI1; assay type: biochemical; conditions: 50 μM compound
T1 construct: made in house; host or cells: RHOGDI1: E. coli; prenylated CDC42: insect cells (TNAO38)
Experimental: Supplementary Figure S4. Compound 7a impairs RHOGDI1 function. (a) Assay setup for the liposome sedimentation assay. (b) Displacement of prenylated GDP‐bound RAC1 from synthetic liposomes by GST-RHOGDI1 in the presence or absence of 50 μM 7a was measured using liposome floatation assay. Data is representative of three independent experiments.
Liposome-containing phase represented by fluorescent colour as result of 5% fluorescent NDB-PE was analysed by Western blotting. Data are representatives of three independent […]
experiments. (c-d) Displacement of prenylated
GDP‐bound RHO GTPases (RHOA and CDC42) from synthetic liposomes by GST‐RHOGDI1 […]
liposome sedimentation assay. Data is representative of three independent experiments. P: […]
Liposome sedimentation assay
Liposomes were prepared by self-assembly of the lipids (500 μg) containing 20% (w/w) phosphatidylethanolamine, 45% (w/w) phosphatidylcholine, 20% (w/w) phosphatidylserine, 10% (w/w) cholesterol, and 5% (w/w) phosphatidylinositol 4,5-bisphosphate. […] The resulting pellet and supernatant fractions were collected and analyzed by immunoblotting. […]
The resulting samples were centrifuged at 140000 x g for 1 h at 4 °C. The upper liposome‐ containing phase (detected by fluorescent NDB‐PE) was collected and analyzed by […]

T1 sequence (P52565 whole entry): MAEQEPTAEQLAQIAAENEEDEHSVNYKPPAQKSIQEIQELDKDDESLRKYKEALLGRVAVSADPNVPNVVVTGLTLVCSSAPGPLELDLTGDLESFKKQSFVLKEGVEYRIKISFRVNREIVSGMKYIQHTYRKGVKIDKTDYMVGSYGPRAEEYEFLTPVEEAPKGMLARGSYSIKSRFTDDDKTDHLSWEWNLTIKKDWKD

Compound	Total levels of the three RHO GTPases (in words) (RHO GTPases)	Inhibition of RHOGDI1-mediated extraction of CDC42 (in words) [1]
COC(=O)C1(C(CC(=O)c2cccnc2)c2ccccc2)N=C(c2ccc(Br)cc2)C2C(=O)N(C)C(=O)C21 (centres unmarked) [7l]	did not alter the total levels	
COC(=O)C1(C(CC(=O)c2ccccc2)c2ccccc2)N=C(c2ccc(Br)cc2)C2C(=O)N(C)C(=O)C21 (centres unmarked) [7a]		inhibited
